In patent EP0501354B1, “Anticataract composition” (Senju Pharmaceutical Co., Ltd., priority 1991, dated 1992):

How the values were obtained:
[1] = system: streptozotocin-induced diabetic cataract; test: Inhibitory effect on streptozotocin-induced diabetic cataract (slit lamp, rating scale of Sasaki et al.); format: in vivo, male SD rats; details: for time at which cataract scores were reached compared with control group / degree of progression of cataract, time series analysis of variance vs control group: 100 mg/kg/day intraperitoneally once a day for 56 days; for time at which cataract scores were reached compared with control group: rating scale of Sasaki et al. 0-6; for degree of progression of cataract, time series analysis of variance vs control group: scored every seven days; for vacuolation rate (of the eyes): after 7 days, 100 mg/kg/day intraperitoneally once a day, STZ 70 mg/kg i.v. rats, control group 45%
Method: Streptozotocin (hereafter abbreviated as STZ), 70 mg/kg, was administered intravenously to 28 male SD rats aged 4 weeks to induce diabetes. Thereafter, the animals were divided into three groups (two groups consisting of 10 animals each and a group consisting of 8 animals). […] The lens was examined with a slit lamp under mydriasis with Mydrin-P before the beginning of drug administration and every seven days after initiation of administration. The degree of cataract was scored according to the rating scale of Sasaki et al. (Ophthalmic Res. 15: 185-190, 1983) and the anticataract activity of each drug was tested by time series analysis of variance. Body weights were taken on each observation day. […] Rating scale of Sasaki et al. 0: No abnormality. 1: Vacuoles are present in the equator of the lens. 2: Vacuoles spread toward the anterior pole beneath the cortex of the anterior lens capsule. 3: Vacuole begin to merge. 4: The deep layer of the cortex of the anterior lens capsule is cloudy. 5: The central part of the lens is milk white in color. 6: Virtually the entire lens is milk white in color (mature cataract).

[2] = Body weight during treatment of streptozotocin-diabetic rats; format: in vivo, male SD rats; details: 100 mg/kg/day intraperitoneally once a day for 56 days; STZ-diabetic rats
Method: Streptozotocin (hereafter abbreviated as STZ), 70 mg/kg, was administered intravenously to 28 male SD rats aged 4 weeks to induce diabetes. Thereafter, the animals were divided into three groups (two groups consisting of 10 animals each and a group consisting of 8 animals). One group received 2% glutathione (dissolved in physiological saline, hereafter referred to as GSH group), another group S-(diethyl α,β-carboxyethyl)glutathione sodium (dissolved in physiological saline, hereafter referred to as DCE-EtGS group), and a third group physiological saline (hereafter referred to as control group), all intraperitoneally in a volume of 0.5 ml/100 g body weight once a day for 56 days (100 mg/kg/day as active substance). The lens was examined with a slit lamp under mydriasis with Mydrin-P before the beginning of drug administration and every seven days after initiation of administration. The degree of cataract was scored according to the rating scale of Sasaki et al. (Ophthalmic Res. 15: 185-190, 1983) and the anticataract activity of each drug was tested by time series analysis of variance. Body weights were taken on each observation day. Incidentally, blood glucose levels were determined 5 days after administration of STZ and the study was continued only after confirmation of hyperglycemia.

SMILES	time at which cataract scores were reached compared with control group [1]	degree of progression of cataract, time series analysis of variance vs control group [1]	vacuolation rate (of the eyes) [1] [%]	Body weight gain vs control group [2]
CCOC(=O)CC(SCC(NC(=O)CCC(N)C(=O)O)C(=O)NCC(=O)O)C(=O)OCC (stereo not drawn) [DCE-EtGS, S-(Diethyl α,β-dicarboxyethyl)glutathione sodium]	scores of 2, 4, 5 and 6 being reached later than in the control group	significant delay of progression	25	significantly greater
N[C@@H](CCC(=O)N[C@@H](CS)C(=O)NCC(=O)O)C(=O)O [GSH, glutathione, reference compound]	scores of 5 and 6 were reached later than in the control group	no significant difference from the control group	56.3	
